{"source": "patent US12024512B2", "about": "“Cocrystal” (TAKEDA PHARMACEUTICAL COMPANY LIMITED, priority 2016, dated 2024)", "format_in_all_cases": "physicochemical", "key": {"[1]": {"experiment": "Solubility in aqueous solutions after shaking each crystal at 37° C. for 24 hr", "conditions": "thermodynamic from solid, 24 hr shaking"}, "[2]": {"experiment": "Recrystallization experiment: crystal form of precipitate from organic solvent", "conditions": "dissolved at 55° C., cooled to 5° C.", "method": "(§1) Powder X-ray diffraction measurement was performed using Cu-Kα radiation and measured by horizontal multipurpose X-ray diffraction system Ultima IV manufactured by Rigaku Corporation. Differential scanning calorimetric or thermogravimetric measurement was performed using DSC1/700/903-2 manufactured by Mettler Toledo or TGA/DSC1/LF/629-2 manufactured by Mettler Toledo and measured at temperature rise rate 5° C./min. Infrared spectrum was measured using Fourier transform infrared spectrophotometer Shimadzu IR Prestige-21 manufactured by Shimadzu Corporation and mounting Dura Sample IR II manufactured by Smiths Detection and by a total reflection method absorption measurement method at resolution 4 cm^−1. Raman spectroscopy was measured using RXN2 manufactured by Kaiser Optical Systems and a laser light source at excitation wavelength 1064 nm. Single crystal X-ray diffraction was measured using Cu-Kα radiation and curved imaging plate single crystal automatic X-ray structure analyzer R-AXIS RAPID II manufactured by Rigaku Corporation. Initial phase was determined by the direct method and the structure was refined by SHELXL-97. […] Intrinsic dissolution rate measurement was evaluated using a compression-molded disc of a crystal powder alone and in 20 mmoL/L sodium phosphate buffer (pH 6.8) containing 0.2% (w/v) sodium lauryl sulfate and by a rotating disc method (rotating speed: 100 rpm). Dissolution test was performed using a powder obtained by physically mixing a crystal powder and lactose in the same weight as the crystal powder and evaluated in Fasted State Simulated Intestinal Fluid (FaSSIF) at 37° C. by a rotating paddle method (paddle rotating speed: 50 rpm). The drug concentration of a solution was determined by liquid chromatography using Alliance HPLC system e2695 and detector 2789 manufactured by Waters (separation column: YMCPackPro C18 4.6 mm[…]×150 mm, temperature: 40° C., mobile phase: 20 mmol/L sodium phosphate buffer (pH 6.8)/acetonitrile=60/40 (v/v), flow rate: 1 mL/min, ultraviolet absorption detection wavelength: 240 nm). As slurry experiment, a test solvent was added to a crystal powder, the mixture was stirred at about 25° C. for 24 hr in suspension, the obtained residue was collected by filtration, and the crystal form was confirmed by powder X-ray diffraction measurement or Raman spectroscopy. In the recrystallization experiment, crystals were dissolved in ethanol, acetone, 2-propanol, tetrahydrofuran, methyl ethyl ketone, ethyl acetate, isopropyl acetate, anisole or isobutyl acetate at 55° C., filtered through a filter, allowed to cool to 5° C. or allowed to cool to 5° C. after adding n-heptane to the solution, and the crystal form of the obtained precipitate was confirmed by powder X-ray diffraction measurement or Raman spectroscopy."}, "[3]": {"experiment": "Slurry experiment: crystal form of residue after stirring in test solvent", "conditions": "about 25° C., 24 hr", "method": "as §1"}}, "data": [{"smiles": "CCc1cc2c(c(OCC(F)(F)F)c(C(=O)NC3CCN(C(=O)CO)CC3)n2C)c(=O)n1CC(=O)c1ccccc1", "note": "[anhydrous crystal of free form, 6-ethyl-N-[1-(hydroxyacetyl)piperidin-4-yl]-1-methyl-4-oxo-5-(2-oxo-2-phenylethyl)-3-(2,2,2-trifluoroethoxy)-4,5-dihydro-1H-pyrrolo[3,2-c]pyridine-2-carboxamide, reference compound]", "values": [{"measurement": "solubility at 24 hr", "setting": "[1]; Fasted State Simulated Intestinal Fluid (FaSSIF), FaSSIF", "result": "23.9 ± 0.1", "unit": "µg/mL"}, {"measurement": "solubility at 24 hr", "setting": "[1]; Fed State Simulated Intestinal Fluid (FeSSIF), FeSSIF", "result": "88.7 ± 0.7", "unit": "µg/mL"}, {"measurement": "solubility at 24 hr", "setting": "[1]; Japanese Pharmacopoeia 1st fluid for dissolution test (JP1), simulated gastric fluid, JP1 (Japanese Pharmacopoeia 1st fluid for dissolution test)", "result": "20.6 ± 0.4", "unit": "µg/mL"}, {"measurement": "solubility at 24 hr", "setting": "[1]; distilled water, concentration of API", "result": "21.5 ± 0.5", "unit": "µg/mL"}, {"measurement": "Crystal form of precipitate obtained by recrystallization experiment", "setting": "[2]; 2-propanol", "result": "free form (solvate)"}, {"measurement": "Crystal form of precipitate obtained by recrystallization experiment", "setting": "[2]; 2-propanol/n-heptane, n-heptane added", "result": "free form (solvate)"}, {"measurement": "Crystal form of precipitate obtained by recrystallization experiment", "setting": "[2]; acetone", "result": "free form (solvate)"}, {"measurement": "Crystal form of precipitate obtained by recrystallization experiment", "setting": "[2]; acetone/n-heptane, n-heptane added", "result": "free form (solvate)"}, {"measurement": "Crystal form of precipitate obtained by recrystallization experiment", "setting": "[2]; anisole", "result": "free form (solvate)"}, {"measurement": "Crystal form of precipitate obtained by recrystallization experiment", "setting": "[2]; anisole/n-heptane, n-heptane added", "result": "free form (solvate)"}, {"measurement": "Crystal form of precipitate obtained by recrystallization experiment", "setting": "[2]; ethanol", "result": "free form (solvate)"}, {"measurement": "Crystal form of precipitate obtained by recrystallization experiment", "setting": "[2]; ethanol/n-heptane, n-heptane added", "result": "free form (solvate)"}, {"measurement": "Crystal form of precipitate obtained by recrystallization experiment", "setting": "[2]; ethyl acetate", "result": "free form (solvate)"}, {"measurement": "Crystal form of precipitate obtained by recrystallization experiment", "setting": "[2]; ethyl acetate/n-heptane, n-heptane added", "result": "free form (solvate)"}, {"measurement": "Crystal form of precipitate obtained by recrystallization experiment", "setting": "[2]; isobutyl acetate", "result": "free form solvate)"}, {"measurement": "Crystal form of precipitate obtained by recrystallization experiment", "setting": "[2]; isopropyl acetate", "result": "free form (solvate)"}, {"measurement": "Crystal form of precipitate obtained by recrystallization experiment", "setting": "[2]; methyl ethyl ketone", "result": "free form (solvate)"}, {"measurement": "Crystal form of precipitate obtained by recrystallization experiment", "setting": "[2]; methyl ethyl ketone/n-heptane, n-heptane added", "result": "free form (solvate)"}, {"measurement": "Crystal form of precipitate obtained by recrystallization experiment", "setting": "[2]; tetrahydrofuran", "result": "free form (solvate)"}, {"measurement": "Crystal form of precipitate obtained by recrystallization experiment", "setting": "[2]; tetrahydrofuran/n-heptane, n-heptane added", "result": "free form (solvate)"}, {"measurement": "Crystal form of residue after slurry experiment", "setting": "[3]; 2-propanol", "result": "free form (solvate)"}, {"measurement": "Crystal form of residue after slurry experiment", "setting": "[3]; acetone", "result": "free form (solvate)"}, {"measurement": "Crystal form of residue after slurry experiment", "setting": "[3]; anisole", "result": "free form (solvate)"}, {"measurement": "Crystal form of residue after slurry experiment", "setting": "[3]; distilled water", "result": "free form (solvate)"}, {"measurement": "Crystal form of residue after slurry experiment", "setting": "[3]; ethanol", "result": "free form (solvate)"}, {"measurement": "Crystal form of residue after slurry experiment", "setting": "[3]; ethyl acetate", "result": "free form (solvate)"}, {"measurement": "Crystal form of residue after slurry experiment", "setting": "[3]; methyl ethyl ketone", "result": "free form (solvate)"}, {"measurement": "Crystal form of residue after slurry experiment", "setting": "[3]; tetrahydrofuran", "result": "free form (solvate)"}]}]}
